# Earlier results in patent US20140256766A1, “TRANSMUCOSAL DRUG DELIVERY SYSTEM” (priority 2013, published 2014).
# How the values were obtained:
# [1] = pH 6.8
# [2] = smoking a cigarette (WO 03/055486 A1)
smiles,measurement,setting,value
CN1CCCC1c1cccnc1 (centres unmarked) [nicotine],nicotine in the free base form,[1],about 10%
same,time to peak plasma nicotine levels,[2],about 10 minutes
